Test results published in ChEMBL document CHEMBL1140602, “A simple, yet highly accurate, QSAR model captures the complement inhibitory activity of compstatin” (Bioorg Med Chem, 2007).
Positions of bridges follow the written chain, without caps; N, C: chain ends. Non-standard residues stand in square brackets, D forms with d. Residues, ends and D or L forms follow the SMILES beside them. Abu = CC[C@H](N)C(=O)O

Assay: Inhibition of C3b activation relative to compstatin

Row | logIC50 | SMILES
1 | 0.079 | CC[C@H](C)[C@H](NC(C)=O)C(=O)N[C@H]1CSSC[C@@H](C(=O)N[C@H](C(N)=O)[C@@H](C)O)NC(=O)[C@H](CCCNC(=N)N)NC(=O)[C@H](Cc2cnc[nH]2)NC(=O)[C@H](Cc2cnc[nH]2)NC(=O)CNC(=O)[C@H](Cc2c[nH]c3ccccc23)NC(=O)[C@H](CC(=O)O)NC(=O)[C@H](CCC(N)=O)NC(=O)[C@H](C(C)C)NC(=O)[C@H](CC(C)C)NC1=O (Ac-ICLVQDWGHHRCT-NH2; disulfide 2-12)
2 | 0.477 | CC[C@H](C)[C@H](NC(=O)[C@@H]1CSSC[C@H](NC(=O)[C@@H](NC(C)=O)[C@@H](C)CC)C(=O)N[C@@H](C(C)C)C(=O)N[C@@H](C)C(=O)N[C@@H](CCC(N)=O)C(=O)N[C@@H](CC(=O)O)C(=O)N[C@@H](Cc2c[nH]c3ccccc23)C(=O)NCC(=O)N[C@@H](C)C(=O)N[C@@H](Cc2cnc[nH]2)C(=O)N[C@@H](CCCNC(=N)N)C(=O)N1)C(N)=O (Ac-ICVAQDWGAHRCI-NH2; disulfide 2-12)
3 | 0.721 | CC[C@H](C)[C@H](NC(C)=O)C(=O)N[C@H]1CSSC[C@@H](C(=O)N[C@H](C(N)=O)[C@@H](C)O)NC(=O)[C@H](CCCNC(=N)N)NC(=O)[C@H](Cc2cnc[nH]2)NC(=O)[C@H](Cc2cnc[nH]2)NC(=O)CNC(=O)[C@H](Cc2c[nH]c3ccccc23)NC(=O)[C@H](CC(=O)O)NC(=O)[C@H](CCC(N)=O)NC(=O)[C@H](Cc2ccccc2)NC(=O)[C@H](C(C)C)NC1=O (Ac-ICVFQDWGHHRCT-NH2; disulfide 2-12)
4 | 0.708 | CC[C@H](C)[C@H](NC(C)=O)C(=O)N[C@H]1CSSC[C@@H](C(=O)N[C@H](C(N)=O)[C@@H](C)O)NC(=O)[C@H](CCCNC(=N)N)NC(=O)[C@H](Cc2cnc[nH]2)NC(=O)[C@H](Cc2cnc[nH]2)NC(=O)CNC(=O)[C@H](Cc2c[nH]c3ccccc23)NC(=O)[C@H](CC(=O)O)NC(=O)[C@H](CCC(N)=O)NC(=O)[C@H](Cc2cnc[nH]2)NC(=O)[C@H](C(C)C)NC1=O (Ac-ICVHQDWGHHRCT-NH2; disulfide 2-12)
5 | 0.022 | CC[C@H](C)[C@H](NC(C)=O)C(=O)N[C@H]1CSSC[C@@H](C(=O)N[C@H](C(N)=O)[C@@H](C)O)NC(=O)[C@H](CCCNC(=N)N)NC(=O)[C@H](Cc2cnc[nH]2)NC(=O)[C@H](Cc2cnc[nH]2)NC(=O)CNC(=O)[C@H](Cc2c[nH]c3ccccc23)NC(=O)[C@H](CC(=O)O)NC(=O)[C@H](CCC(N)=O)NC(=O)[C@H](CO)NC(=O)[C@H](C(C)C)NC1=O (Ac-ICVSQDWGHHRCT-NH2; disulfide 2-12)
6 | -0.699 | CC[C@H](C)[C@H](NC(C)=O)C(=O)N[C@H]1CSSC[C@@H](C(=O)N[C@H](C(N)=O)[C@@H](C)O)NC(=O)[C@H](C)NC(=O)[C@H](Cc2cnc[nH]2)NC(=O)[C@H](Cc2cnc[nH]2)NC(=O)CNC(=O)[C@H](Cc2c[nH]c3ccccc23)NC(=O)[C@H](CC(=O)O)NC(=O)[C@H](CC(N)=O)NC(=O)[C@H](C(C)C)NC(=O)[C@H](C(C)C)NC1=O (Ac-ICVVNDWGHHACT-NH2; disulfide 2-12)
7 | 0.456 | CC[C@H](C)[C@H](NC(C)=O)C(=O)N[C@H]1CSSC[C@@H](C(=O)N[C@H](C(N)=O)[C@@H](C)O)NC(=O)[C@H](CCCNC(=N)N)NC(=O)[C@H](Cc2cnc[nH]2)NC(=O)[C@H](Cc2cnc[nH]2)NC(=O)CNC(=O)[C@H](Cc2c[nH]c3ccccc23)NC(=O)[C@H](CC(=O)O)NC(=O)[C@H](CC(N)=O)NC(=O)[C@H](C(C)C)NC(=O)[C@H](C(C)C)NC1=O (Ac-ICVVNDWGHHRCT-NH2; disulfide 2-12)
8 | 0.084 | CC[C@H](C)[C@H](NC(C)=O)C(=O)N[C@H]1CSSC[C@@H](C(=O)N[C@H](C(N)=O)[C@@H](C)O)NC(=O)[C@H](C)NC(=O)[C@H](Cc2cnc[nH]2)NC(=O)[C@H](C)NC(=O)CNC(=O)[C@H](Cc2c[nH]c3ccccc23)NC(=O)[C@H](CC(=O)O)NC(=O)[C@H](CCC(N)=O)NC(=O)[C@H](C(C)C)NC(=O)[C@H](C(C)C)NC1=O (Ac-ICVVQDWGAHACT-NH2; disulfide 2-12)
9 | 0.617 | CC[C@H](C)[C@H](NC(C)=O)C(=O)N[C@H]1CSSC[C@@H](C(=O)N[C@H](C(N)=O)[C@@H](C)O)NC(=O)[C@H](CCCNC(=N)N)NC(=O)[C@H](Cc2cnc[nH]2)NC(=O)[C@H](C)NC(=O)CNC(=O)[C@H](Cc2c[nH]c3ccccc23)NC(=O)[C@H](CC(=O)O)NC(=O)[C@H](CCC(N)=O)NC(=O)[C@H](C(C)C)NC(=O)[C@H](C(C)C)NC1=O (Ac-ICVVQDWGAHRCT-NH2; disulfide 2-12)
10 | 0.574 | CC[C@H](C)[C@H](NC(=O)[C@@H]1CSSC[C@H](NC(=O)[C@@H](NC(C)=O)[C@@H](C)CC)C(=O)N[C@@H](C(C)C)C(=O)N[C@@H](C(C)C)C(=O)N[C@@H](CCC(N)=O)C(=O)N[C@@H](CC(=O)O)C(=O)N[C@@H](Cc2c[nH]c3ccccc23)C(=O)NCC(=O)N[C@@H](Cc2cnc[nH]2)C(=O)N[C@@H](Cc2cnc[nH]2)C(=O)N[C@@H](CCCNC(=N)N)C(=O)N1)C(N)=O (Ac-ICVVQDWGHHRCI-NH2; disulfide 2-12)
11 | 1.55 | CC[C@@H]1NC(=O)CNC(=O)[C@H](Cc2c[nH]c3ccccc23)NC(=O)[C@H](CC(=O)O)NC(=O)[C@H](CCC(N)=O)NC(=O)[C@H](Cc2c[nH]c3ccccc23)NC(=O)[C@H](C(C)C)NC(=O)[C@@H](NC(=O)[C@@H](NC(C)=O)[C@@H](C)CC)CSSC[C@@H](C(=O)N[C@H](C(N)=O)[C@@H](C)O)NC(=O)[C@H](CCCNC(=N)N)NC(=O)[C@H](Cc2cnc[nH]2)NC1=O (Ac-ICVWQDWG[Abu]HRCT-NH2; disulfide 2-12)
12 | -0.863 | CSCC[C@H](NC(C)=O)C(=O)N[C@H]1CSSC[C@@H](C(=O)N[C@@H](Cc2ccccc2)C(N)=O)NC(=O)[C@H](CCCNC(=N)N)NC(=O)[C@H](Cc2cnc[nH]2)NC(=O)CNC(=O)CNC(=O)[C@H](Cc2c[nH]c3ccccc23)NC(=O)[C@H](CC(=O)O)NC(=O)[C@H](CCC(N)=O)NC(=O)[C@H](Cc2cnc[nH]2)NC(=O)[C@H](C(C)C)NC1=O (Ac-MCVHQDWGGHRCF-NH2; disulfide 2-12)
13 | 0.176 | CC(=O)N[C@@H](CCCNC(=N)N)C(=O)N[C@H]1CSSC[C@@H](C(=O)N[C@H](C(N)=O)[C@@H](C)O)NC(=O)[C@H](CCCNC(=N)N)NC(=O)[C@H](Cc2cnc[nH]2)NC(=O)[C@H](Cc2cnc[nH]2)NC(=O)CNC(=O)[C@H](Cc2c[nH]c3ccccc23)NC(=O)[C@H](CC(=O)O)NC(=O)[C@H](CCC(N)=O)NC(=O)[C@H](C(C)C)NC(=O)[C@H](C(C)C)NC1=O (Ac-RCVVQDWGHHRCT-NH2; disulfide 2-12)
14 | -0.097 | CC(C)[C@@H]1NC(=O)[C@H](C(C)C)NC(=O)[C@@H](N)CSSC[C@@H](C(=O)O)NC(=O)[C@H](CCCNC(=N)N)NC(=O)[C@H](Cc2cnc[nH]2)NC(=O)[C@H](C)NC(=O)CNC(=O)[C@H](Cc2c[nH]c3ccccc23)NC(=O)[C@H](CC(=O)O)NC(=O)[C@H](CCC(N)=O)NC1=O (H-CVVQDWGAHRC-OH; disulfide 1-11)
15 | -0.79 | CC(C)[C@@H]1NC(=O)[C@H](C(C)C)NC(=O)[C@@H](N)CSSC[C@@H](C(=O)O)NC(=O)[C@H](CCCNC(=N)N)NC(=O)[C@H](C)NC(=O)[C@H](Cc2cnc[nH]2)NC(=O)CNC(=O)[C@H](Cc2c[nH]c3ccccc23)NC(=O)[C@H](CC(=O)O)NC(=O)[C@H](CCC(N)=O)NC1=O (H-CVVQDWGHARC-OH; disulfide 1-11)
16 | -0.767 | CC(C)[C@@H]1NC(=O)[C@H](C(C)C)NC(=O)[C@@H](N)CSSC[C@@H](C(=O)O)NC(=O)[C@H](C)NC(=O)[C@H](Cc2cnc[nH]2)NC(=O)[C@H](Cc2cnc[nH]2)NC(=O)CNC(=O)[C@H](Cc2c[nH]c3ccccc23)NC(=O)[C@H](CC(=O)O)NC(=O)[C@H](CCC(N)=O)NC1=O (H-CVVQDWGHHAC-OH; disulfide 1-11)
17 | -0.439 | CC(C)[C@@H]1NC(=O)[C@H](C(C)C)NC(=O)[C@@H](N)CSSC[C@@H](C(N)=O)NC(=O)[C@H](CCCNC(=N)N)NC(=O)[C@H](Cc2cnc[nH]2)NC(=O)[C@H](Cc2cnc[nH]2)NC(=O)CNC(=O)[C@H](Cc2c[nH]c3ccccc23)NC(=O)[C@H](CC(=O)O)NC(=O)[C@H](CCC(N)=O)NC1=O (H-CVVQDWGHHRC-NH2; disulfide 1-11)
18 | -0.439 | CC(C)[C@@H]1NC(=O)[C@H](C(C)C)NC(=O)[C@@H](N)CSSC[C@@H](C(=O)O)NC(=O)[C@H](CCCNC(=N)N)NC(=O)[C@H](Cc2cnc[nH]2)NC(=O)[C@H](Cc2cnc[nH]2)NC(=O)CNC(=O)[C@H](Cc2c[nH]c3ccccc23)NC(=O)[C@H](CC(=O)O)NC(=O)[C@H](CCC(N)=O)NC1=O (H-CVVQDWGHHRC-OH; disulfide 1-11)
19 | -0.319 | CC(C)[C@@H]1NC(=O)[C@H](C(C)C)NC(=O)[C@@H](N)CSSC[C@@H](C(=O)N[C@H](C(N)=O)[C@@H](C)O)NC(=O)[C@H](CCCNC(=N)N)NC(=O)[C@H](Cc2cnc[nH]2)NC(=O)[C@H](Cc2cnc[nH]2)NC(=O)CNC(=O)[C@H](Cc2c[nH]c3ccccc23)NC(=O)[C@H](CC(=O)O)NC(=O)[C@H](CCC(N)=O)NC1=O (H-CVVQDWGHHRCT-NH2; disulfide 1-11)
20 | -0.264 | CC(C)[C@@H]1NC(=O)[C@@H](NC(=O)[C@@H](N)CC(=O)O)CSSC[C@@H](C(=O)N[C@H](C(N)=O)[C@@H](C)O)NC(=O)[C@H](CCCCN)NC(=O)[C@H](Cc2cnc[nH]2)NC(=O)[C@H](Cc2cnc[nH]2)NC(=O)CNC(=O)[C@H](Cc2c[nH]c3ccccc23)NC(=O)[C@H](CC(=O)O)NC(=O)[C@H](CCC(N)=O)NC(=O)[C@H](C(C)C)NC1=O (H-DCVVQDWGHHKCT-NH2; disulfide 2-12)
21 | -0.226 | CC[C@H](C)[C@H](N)C(=O)N[C@H]1CSSC[C@@H](C(=O)N[C@H](C(N)=O)[C@@H](C)O)NC(=O)[C@H](CCCCN)NC(=O)[C@H](Cc2cnc[nH]2)NC(=O)[C@H](Cc2cnc[nH]2)NC(=O)CNC(=O)[C@H](Cc2c[nH]c3ccccc23)NC(=O)[C@H](CC(=O)O)NC(=O)[C@H](CCC(N)=O)NC(=O)[C@H](C(C)C)NC(=O)[C@H](C(C)C)NC1=O (H-ICVVQDWGHHKCT-NH2; disulfide 2-12)
22 | 0.617 | CC(C)C[C@H](N)C(=O)N[C@H]1CSSC[C@@H](C(=O)NCC(N)=O)NC(=O)[C@H](CCCNC(=N)N)NC(=O)[C@H](Cc2cnc[nH]2)NC(=O)[C@H](Cc2c[nH]c3ccccc23)NC(=O)CNC(=O)[C@H](Cc2c[nH]c3ccccc23)NC(=O)[C@H](CC(=O)O)NC(=O)[C@H](CCC(N)=O)NC(=O)[C@H](C(C)C)NC(=O)[C@H](C(C)C)NC1=O (H-LCVVQDWGWHRCG-NH2; disulfide 2-12)
